Results taken from patent publication US6534507B1 (Fabre-Kramer Pharmaceuticals, Inc., priority 1999, dated 2003).
Where “and” joins values, the source holds several entries; their conditions need not be identical. Equal entries are not always repeated.

What was measured:
M1 = biological target: T1, M1 (Homo sapiens, UniProt P11229); experiment: muscarinic receptor binding, M1; conditions: read-out: pKi M1 (converted)
T1 construct: expressed in transfected cells
T1 sequence (P11229 1-460): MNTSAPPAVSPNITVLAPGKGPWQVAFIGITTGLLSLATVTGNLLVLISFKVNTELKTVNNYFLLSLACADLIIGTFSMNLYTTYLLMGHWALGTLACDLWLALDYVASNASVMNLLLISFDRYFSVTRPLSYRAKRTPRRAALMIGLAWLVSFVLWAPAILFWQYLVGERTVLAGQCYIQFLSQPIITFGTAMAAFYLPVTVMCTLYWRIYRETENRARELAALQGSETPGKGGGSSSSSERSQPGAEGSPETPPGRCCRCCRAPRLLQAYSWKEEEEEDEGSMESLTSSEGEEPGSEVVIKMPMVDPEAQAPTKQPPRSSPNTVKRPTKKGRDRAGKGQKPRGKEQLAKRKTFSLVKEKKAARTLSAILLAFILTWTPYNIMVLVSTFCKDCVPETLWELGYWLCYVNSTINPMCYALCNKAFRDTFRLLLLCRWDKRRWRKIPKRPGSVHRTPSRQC
Excerpt: (§1) As known in the art, human monoamine GPCR binding profiles were obtained using heterologously expressed cloned human GPCRs in the binding experiments. Both pKi and IC50 (nM concentration) values were obtained as well as an average value of each from at least three determinations.

M2 = biological target: T2, M2 (Homo sapiens, UniProt P08172); experiment: muscarinic receptor binding, M2; conditions: read-out: pKi M2 (converted)
T2 construct: expressed in transfected cells
T2 sequence (P08172 1-466): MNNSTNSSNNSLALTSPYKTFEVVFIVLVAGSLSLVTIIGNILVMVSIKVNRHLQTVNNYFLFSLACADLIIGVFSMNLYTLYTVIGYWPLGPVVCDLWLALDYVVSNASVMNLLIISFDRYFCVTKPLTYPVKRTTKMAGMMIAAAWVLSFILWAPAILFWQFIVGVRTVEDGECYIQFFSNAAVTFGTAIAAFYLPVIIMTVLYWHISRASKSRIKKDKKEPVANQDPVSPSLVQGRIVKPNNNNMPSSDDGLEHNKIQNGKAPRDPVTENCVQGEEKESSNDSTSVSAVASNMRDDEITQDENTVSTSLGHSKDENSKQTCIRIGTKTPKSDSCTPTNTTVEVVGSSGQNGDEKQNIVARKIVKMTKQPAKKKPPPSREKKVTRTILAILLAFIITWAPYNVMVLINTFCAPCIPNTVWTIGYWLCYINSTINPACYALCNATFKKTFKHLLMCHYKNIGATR
Excerpt: as §1

M3 = biological target: T3, M3 (Homo sapiens, UniProt P20309); experiment: muscarinic receptor binding, M3; conditions: read-out: pKi M3 (converted)
T3 construct: expressed in transfected cells
T3 sequence (P20309 whole entry): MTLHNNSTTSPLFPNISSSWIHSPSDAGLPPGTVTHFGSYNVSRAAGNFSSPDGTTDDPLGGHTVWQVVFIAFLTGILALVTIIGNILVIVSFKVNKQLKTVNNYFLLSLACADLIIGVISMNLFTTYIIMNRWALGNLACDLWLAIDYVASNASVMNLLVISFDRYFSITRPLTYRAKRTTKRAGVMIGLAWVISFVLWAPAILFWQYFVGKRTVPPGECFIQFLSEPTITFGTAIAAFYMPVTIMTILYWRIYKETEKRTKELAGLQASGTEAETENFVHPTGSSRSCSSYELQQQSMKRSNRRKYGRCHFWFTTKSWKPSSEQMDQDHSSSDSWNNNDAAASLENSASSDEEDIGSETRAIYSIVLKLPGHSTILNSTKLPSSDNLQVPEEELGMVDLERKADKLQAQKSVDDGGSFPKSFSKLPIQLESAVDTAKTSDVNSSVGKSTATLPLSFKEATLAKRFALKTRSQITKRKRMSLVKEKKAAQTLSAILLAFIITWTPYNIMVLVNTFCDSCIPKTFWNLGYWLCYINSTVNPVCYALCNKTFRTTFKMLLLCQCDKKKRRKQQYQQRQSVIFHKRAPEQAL
Excerpt: as §1

M4 = biological target: T4, M4 (Homo sapiens, UniProt P08173); experiment: muscarinic receptor binding, M4; conditions: read-out: pKi M4 (converted)
T4 construct: expressed in transfected cells
T4 sequence (P08173 1-479): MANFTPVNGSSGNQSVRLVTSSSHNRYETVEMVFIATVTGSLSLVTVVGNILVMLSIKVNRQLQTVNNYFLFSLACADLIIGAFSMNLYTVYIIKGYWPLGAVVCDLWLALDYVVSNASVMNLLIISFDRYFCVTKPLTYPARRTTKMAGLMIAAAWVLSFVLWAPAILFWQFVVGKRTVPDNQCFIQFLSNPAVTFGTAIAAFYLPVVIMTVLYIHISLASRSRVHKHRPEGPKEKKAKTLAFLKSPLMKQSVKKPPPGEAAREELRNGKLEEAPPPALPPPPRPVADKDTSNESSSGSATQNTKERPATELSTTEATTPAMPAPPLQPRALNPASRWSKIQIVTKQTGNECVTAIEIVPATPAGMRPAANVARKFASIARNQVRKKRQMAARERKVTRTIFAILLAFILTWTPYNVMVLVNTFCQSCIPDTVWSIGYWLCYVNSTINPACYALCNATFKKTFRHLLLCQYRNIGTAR
Excerpt: as §1

[1] = cited from earlier work; for half-life: result in words
5-HT1A receptor = biological target: T5, 5-HT1A receptor (Homo sapiens, UniProt P08908); experiment: human monoamine GPCR binding profile, 5-HT1A
T5 construct: expressed in transfected cells
T5 sequence (P08908 1-422): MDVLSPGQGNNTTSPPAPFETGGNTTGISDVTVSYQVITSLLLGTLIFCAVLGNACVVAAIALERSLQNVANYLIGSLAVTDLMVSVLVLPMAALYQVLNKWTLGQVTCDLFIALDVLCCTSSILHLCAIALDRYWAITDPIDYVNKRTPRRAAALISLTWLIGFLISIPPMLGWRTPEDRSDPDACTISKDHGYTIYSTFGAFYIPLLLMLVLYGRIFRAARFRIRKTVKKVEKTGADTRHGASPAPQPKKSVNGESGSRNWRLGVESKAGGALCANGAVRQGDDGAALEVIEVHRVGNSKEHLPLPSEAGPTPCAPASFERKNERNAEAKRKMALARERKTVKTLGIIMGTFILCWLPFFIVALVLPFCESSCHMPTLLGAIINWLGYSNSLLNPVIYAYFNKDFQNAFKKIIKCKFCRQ
Excerpt: as §1

D2A = biological target: T6, D2A (Homo sapiens, UniProt P14416); experiment: dopaminergic receptor binding, D2A; conditions: result in words
T6 construct: expressed in transfected cells
T6 sequence (P14416 whole entry): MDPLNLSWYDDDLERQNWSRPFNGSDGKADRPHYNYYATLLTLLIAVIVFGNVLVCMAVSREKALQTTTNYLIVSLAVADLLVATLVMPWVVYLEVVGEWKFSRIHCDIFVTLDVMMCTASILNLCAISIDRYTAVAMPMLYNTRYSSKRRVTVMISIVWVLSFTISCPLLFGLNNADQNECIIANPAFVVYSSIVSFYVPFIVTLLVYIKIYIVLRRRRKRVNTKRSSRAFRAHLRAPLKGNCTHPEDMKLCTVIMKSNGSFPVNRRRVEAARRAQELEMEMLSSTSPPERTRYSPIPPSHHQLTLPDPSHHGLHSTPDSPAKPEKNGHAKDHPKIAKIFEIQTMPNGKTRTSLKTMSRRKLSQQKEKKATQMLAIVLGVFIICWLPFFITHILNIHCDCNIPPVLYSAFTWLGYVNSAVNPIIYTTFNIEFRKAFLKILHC
Method: as §1
(§2) Dopaminergic receptors D2A, D2B, D3, and D4 were also tested.

D2B = biological target: T7, D2B (Homo sapiens, UniProt P14416); experiment: dopaminergic receptor binding, D2B; conditions: result in words
T7 construct: expressed in transfected cells
T7 sequence (P14416 1-414 isoform P14416-2): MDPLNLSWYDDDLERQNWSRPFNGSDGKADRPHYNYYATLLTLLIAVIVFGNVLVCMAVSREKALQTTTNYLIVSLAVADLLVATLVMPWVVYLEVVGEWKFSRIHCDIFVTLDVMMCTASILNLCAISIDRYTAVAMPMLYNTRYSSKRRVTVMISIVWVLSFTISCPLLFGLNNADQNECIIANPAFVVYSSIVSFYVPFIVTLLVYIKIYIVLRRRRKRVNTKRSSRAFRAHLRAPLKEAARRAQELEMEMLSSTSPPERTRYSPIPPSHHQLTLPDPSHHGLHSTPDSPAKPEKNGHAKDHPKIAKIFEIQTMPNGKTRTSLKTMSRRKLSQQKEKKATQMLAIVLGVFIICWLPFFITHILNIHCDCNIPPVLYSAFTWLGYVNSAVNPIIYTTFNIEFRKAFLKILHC
Method: as §1, §2

D3 = biological target: T8, D3 (Homo sapiens, UniProt P35462); experiment: dopaminergic receptor binding, D3; conditions: result in words
T8 construct: expressed in transfected cells
T8 sequence (P35462 whole entry): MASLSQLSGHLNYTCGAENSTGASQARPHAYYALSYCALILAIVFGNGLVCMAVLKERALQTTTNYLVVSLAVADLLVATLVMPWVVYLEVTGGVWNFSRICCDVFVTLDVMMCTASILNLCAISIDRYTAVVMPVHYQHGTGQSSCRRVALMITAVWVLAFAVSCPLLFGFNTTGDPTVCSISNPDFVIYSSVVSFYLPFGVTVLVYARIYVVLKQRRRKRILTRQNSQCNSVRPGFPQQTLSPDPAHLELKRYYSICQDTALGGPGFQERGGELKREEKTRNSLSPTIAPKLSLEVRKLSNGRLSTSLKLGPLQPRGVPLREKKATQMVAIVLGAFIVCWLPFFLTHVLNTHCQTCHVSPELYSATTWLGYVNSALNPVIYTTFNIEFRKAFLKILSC
Method: as §1, §2

D4 = biological target: T9, D4 (Homo sapiens, UniProt P21917); experiment: dopaminergic receptor binding, D4
T9 construct: expressed in transfected cells
T9 sequence (P21917 1-419): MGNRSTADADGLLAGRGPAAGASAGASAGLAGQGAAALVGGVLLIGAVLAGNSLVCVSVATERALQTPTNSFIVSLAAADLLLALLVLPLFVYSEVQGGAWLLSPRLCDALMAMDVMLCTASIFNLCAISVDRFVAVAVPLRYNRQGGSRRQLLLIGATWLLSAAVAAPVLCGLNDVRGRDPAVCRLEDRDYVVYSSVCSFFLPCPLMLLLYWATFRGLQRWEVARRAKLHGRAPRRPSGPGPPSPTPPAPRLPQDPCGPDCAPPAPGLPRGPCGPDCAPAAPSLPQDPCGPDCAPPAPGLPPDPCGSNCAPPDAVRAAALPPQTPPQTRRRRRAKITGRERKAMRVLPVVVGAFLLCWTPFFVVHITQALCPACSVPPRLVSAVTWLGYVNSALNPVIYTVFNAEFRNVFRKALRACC
Method: as §1, §2

Alpha 2A = biological target: T10, Alpha 2A (Homo sapiens, UniProt P08913); experiment: alpha-adrenergic receptor binding, Alpha 2A; conditions: result in words
T10 construct: expressed in transfected cells
T10 sequence (P08913 1-465): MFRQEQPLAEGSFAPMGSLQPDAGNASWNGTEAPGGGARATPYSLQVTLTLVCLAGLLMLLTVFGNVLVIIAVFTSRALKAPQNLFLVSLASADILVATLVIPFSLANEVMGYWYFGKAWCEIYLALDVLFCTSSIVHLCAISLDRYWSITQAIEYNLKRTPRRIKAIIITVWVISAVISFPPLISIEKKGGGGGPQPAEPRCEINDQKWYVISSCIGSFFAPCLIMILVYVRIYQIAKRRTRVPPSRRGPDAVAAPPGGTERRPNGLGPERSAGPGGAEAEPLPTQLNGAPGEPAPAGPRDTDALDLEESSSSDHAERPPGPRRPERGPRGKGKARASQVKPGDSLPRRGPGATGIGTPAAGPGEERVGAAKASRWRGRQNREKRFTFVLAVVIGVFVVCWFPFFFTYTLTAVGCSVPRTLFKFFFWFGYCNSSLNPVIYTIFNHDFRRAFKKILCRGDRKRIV
Method: as §1, §2

Alpha 2B = biological target: T11, Alpha 2B (Homo sapiens, UniProt P18089); experiment: alpha-adrenergic receptor binding, Alpha 2B; conditions: result in words
T11 construct: expressed in transfected cells
T11 sequence (P18089 1-450): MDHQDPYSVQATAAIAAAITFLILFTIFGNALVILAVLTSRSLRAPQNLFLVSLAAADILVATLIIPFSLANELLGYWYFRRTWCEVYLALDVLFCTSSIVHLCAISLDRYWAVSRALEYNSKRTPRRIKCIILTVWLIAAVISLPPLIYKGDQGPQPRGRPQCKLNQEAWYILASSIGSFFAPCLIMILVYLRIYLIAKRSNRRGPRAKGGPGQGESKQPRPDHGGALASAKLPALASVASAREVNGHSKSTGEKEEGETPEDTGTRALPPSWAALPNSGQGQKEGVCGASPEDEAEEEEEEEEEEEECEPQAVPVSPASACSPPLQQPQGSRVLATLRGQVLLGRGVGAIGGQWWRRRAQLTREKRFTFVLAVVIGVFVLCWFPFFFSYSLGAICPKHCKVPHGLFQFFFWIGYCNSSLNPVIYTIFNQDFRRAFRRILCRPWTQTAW
Method: as §1, §2

Alpha 2C receptor = biological target: T12, Alpha 2C receptor (Homo sapiens, UniProt P18825); experiment: alpha-adrenergic receptor binding, Alpha 2C; conditions: result in words
T12 construct: expressed in transfected cells
T12 sequence (P18825 1-462): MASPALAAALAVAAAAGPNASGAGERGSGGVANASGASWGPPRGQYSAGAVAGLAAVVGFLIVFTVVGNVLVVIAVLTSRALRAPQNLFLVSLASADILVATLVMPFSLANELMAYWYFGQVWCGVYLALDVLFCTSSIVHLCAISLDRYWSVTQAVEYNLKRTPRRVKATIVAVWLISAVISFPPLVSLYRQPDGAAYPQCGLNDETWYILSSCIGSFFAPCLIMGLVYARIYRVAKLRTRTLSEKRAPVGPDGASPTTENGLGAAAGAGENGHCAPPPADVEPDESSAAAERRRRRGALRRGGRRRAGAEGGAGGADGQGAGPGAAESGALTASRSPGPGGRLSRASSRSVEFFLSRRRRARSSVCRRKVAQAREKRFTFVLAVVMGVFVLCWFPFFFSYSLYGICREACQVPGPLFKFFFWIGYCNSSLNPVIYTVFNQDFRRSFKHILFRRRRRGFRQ
Method: as §1, §2

[2] = plasma levels of 3-OH gepirone after administration of gepirone; assay type: in vivo; conditions: human subjects administered a dose of gepirone; FIG. 2; result in words
Method: “Time (H)” represents time after administration.
Each sample corresponds to a 0.5 ml plasma sample, extracted with 6 ml of (2:1) (v/v) hexane:chloroform for 1 hour. After separation by centrifuge, the organic layer is transferred to a 10 ml conical tube and 90 ul of 1% formic acid is added. The tube is vortexed for 10 minutes and centrifuged for 5 minutes. About 80 ul of the formic acid layer is transferred into injection vials for HPLC/MS analysis.

Which Ki (M1) does the source give for `CC1(C)CC(=O)N(CCCCN2CCN(c3ncccn3)CC2)C(=O)C1` [gepirone, 4-dimethyl-1-[4-[4-(2-pyrimidinyl)-1-piperazinyl]butyl]-2,6-piperidinedione, reference compound] here?
Its Ki is greater than 45.7 µM.

What about the Ki (M2) of the same molecule?
The Ki was greater than 45.7 µM.

And the Ki (M3)?
The Ki was greater than 45.7 µM.

And the Ki (M4)?
The Ki was greater than 45.7 µM.

What about the bioavailability ([1]; delivered orally) of the same molecule?
Its bioavailability is 14-18%.

What about the half-life [1] of the same molecule?
Its half-life is “very short”.

With `O=C1CC2(CCCC2)CC(=O)N1CCCCN1CCN(c2ncccn2)CC1` [buspirone] as the molecule, how does the half-life [1] read?
The half-life was “very short”.

Which results are given for `CC1(C)CC(=O)N(CCCCN2CCN(c3ncccn3)CC2)C(=O)C1O` (stereo not drawn) [3-OH gepirone, 4,4,-dimethyl-3-hydroxy-1-[4-[4-(2-pyrimidinyl)-1-piperazinyl]butyl]-2,6-piperidinedione]?
IC50 (5-HT1A receptor; cloned human GPCR, average of at least three determinations): < 0.1 µM and ~0.058 µM; selectivity for the 5-HT1A receptor among the serotonergic receptor subtypes (5-HT1A receptor; in vitro binding studies, result in words): highly selective; binding at D2A (D2A): insignificant dopaminergic binding; binding at D2B (D2B): insignificant dopaminergic binding; binding at D3 (D3): insignificant dopaminergic binding; IC50 (D4): ~1.42 µM; affinity at Alpha 2A (Alpha 2A): did not display significant affinity; affinity at Alpha 2B (Alpha 2B): did not display significant affinity; binding at the Alpha 2C receptor (Alpha 2C receptor): weak binding; Ki (M1): > 45.7 µM; Ki (M2): > 45.7 µM; Ki (M3): > 45.7 µM; Ki (M4): > 45.7 µM; plasma levels of 3-OH gepirone [2]: available quickly and persists in the plasma for extended periods of time
